Where two headings read alike, the source gives them in different places.
How the values were obtained:
α6β3γ2 GABAA receptor [1] = molecular target: T1, α6β3γ2 GABAA receptor (Homo sapiens, UniProt P18507+Q16445); assay: Binding affinity at recombinant GABAA receptors (Ltk cells stably transfected)
T1 construct: expressed in transfected cells

α1β3γ2 GABAA receptor [2] = molecular target: T2, α1β3γ2 GABAA receptor (Homo sapiens, UniProt P14867+P18507); assay: as above; conditions: recombinant αxβ3γ2; read-out: Ki α1
T2 construct: expressed in transfected cells

α5β3γ2 GABAA receptor [3] = molecular target: T3, α5β3γ2 GABAA receptor (Homo sapiens, UniProt P18507+P31644); assay: as above
T3 construct: expressed in transfected cells

[4] = molecular target: wild type BDZ receptors (cerebral cortical membranes); assay: Radioligand displacement at cerebral cortical membranes; format: binding; conditions: read-out: Displacement of [3H] flunitrazepam in vitro, IC50; rat cerebral cortical membranes; mean of three or more experiments
Procedure: [^3H] […] In brief, rats were sacrificed by decapitation, and the cerebral cortex removed. […] Tissue was resuspended in an equal volume of buffer and recentrifuged. This procedure was repeated a total of three times and the tissue resuspended in 50 volumes of buffer. Incubations (1 mL) consisted of tissue (0.3 mL), drug solution (0.1 mL), buffer (0.5 mL) and radioligand (0.1 mL). […] The IC50 values were estimated using Hill plots.

α2β3γ2 GABAA receptor [5] = molecular target: T4, α2β3γ2 GABAA receptor (Homo sapiens, UniProt P18507+P47869); assay: Binding affinity at recombinant GABAA receptors (Ltk cells stably transfected); conditions: recombinant αxβ3γ2; read-out: Ki α2
T4 construct: expressed in transfected cells

α3β3γ2 GABAA receptor [6] = molecular target: T5, α3β3γ2 GABAA receptor (Homo sapiens, UniProt P18507+P34903); assay: as above; conditions: recombinant αxβ3γ2; read-out: Ki α3
T5 construct: expressed in transfected cells

α6β3γ2 GABAA receptor [7] = molecular target: T1, α6β3γ2 GABAA receptor; conditions: footnoted b or c; read-out: Ki α6; cited from earlier work
α5β3γ2 GABAA receptor [8] = molecular target: T3, α5β3γ2 GABAA receptor; conditions: footnoted b or c; read-out: Ki α5; cited from earlier work
α3β3γ2 GABAA receptor [9] = molecular target: T5, α3β3γ2 GABAA receptor; conditions: footnoted b or c; read-out: Ki α3; cited from earlier work
α1β3γ2 GABAA receptor [10] = molecular target: T2, α1β3γ2 GABAA receptor; conditions: footnoted b (Schering Labs, unpublished) or c (McKernan et al., 2000); read-out: Ki α1; cited from earlier work
α2β3γ2 GABAA receptor [11] = molecular target: T4, α2β3γ2 GABAA receptor; conditions: footnoted b or c; read-out: Ki α2; cited from earlier work
GABAA α2β3γ2 receptors = assay: Xenopus oocyte expression assay, modulation of GABA current; format: cell-based, rat; conditions: saturating 1-10 μM modulator with EC50 GABA (50 μM); mean±S.D.
GABAA α3β3γ2 receptors = assay: as above; format: cell-based, rat; conditions: saturating 1-10 μM modulator with EC50 GABA (30 μM); mean±S.D.
GABAA α4β3γ2 receptors = assay: as above; format: cell-based, rat
[12] = test system: alcohol-preferring (P) rats; conditions: parenteral and oral administration (June et al., 1998b); cited from earlier work
GABAA α1β3γ2 receptors = molecular target: T6, GABAA α1β3γ2 receptors (Rattus norvegicus, UniProt P18508+P62813); assay: Xenopus oocyte expression assay, modulation of GABA current; format: cell-based; conditions: saturating 1-10 μM modulator with EC50 GABA (50 μM); mean±S.D.
T6 construct: expressed in transfected cells; host or cells: Xenopus laevis oocytes injected with cRNA

squirrel monkeys = conditions: Rowlett et al., unpublished observation; cited from earlier work
GABAA α5β3γ2 receptors = molecular target: T7, GABAA α5β3γ2 receptors (Rattus norvegicus, UniProt P18508+P19969); assay: Xenopus oocyte expression assay, modulation of GABA current; format: cell-based; conditions: saturating 1-10 μM modulator with EC50 GABA (30 μM); mean±S.D.
T7 construct: expressed in transfected cells; host or cells: Xenopus laevis oocytes injected with cRNA

[13] = test system: recombinant GABAA α1 through α5 (β3γ2) receptors; assay: Xenopus oocyte expression assay, result stated across several subtypes; format: cell-based, rat; conditions: saturating concentration; compared with 3-PBC
P rats [14] = assay: EtOH and sucrose responding after oral (gavage) administration; format: in vivo, rat
Excerpt: In this study we compared the suppressant effect of βCCt and 3-PBC with naltrexone, a currently used alcohol antagonist on the market. As it is shown in FIG. 29A-B, orally administered βCCt can reduce alcohol responding, however, the effects are not dose related. In addition, 24 hr after administration of βCCt, it continues to reduce alcohol responding with selected doses. […] The suppressant effects of naltrexone in reducing alcohol responding are also dissipated 24 hr after the administration. […] Unlike naltrexone, the suppressant effects observed by βCCt and 3-PBC are selective for alcohol, and not reinforcers in general.

P rats [15] = format: in vivo, rat; conditions: i.p.; chlordiazepoxide 10 mg/kg, βCCt 15 mg/kg; 10 min open field
Procedure: (§1) Ambulatory count in the open field was recorded individually for 10 min in a plexiglas chamber (42 cm×42 cm 30 cm) using a Digiscan activity monitoring system (Acuscan Electronics, Columbus, Ohio, USA) (for details of the monitoring system see June et al., 1998d).
(§2) βCCt (15 mg/kg i.p.) and chlordiazepoxide (10 mg/kg i.p.) were administered 15 and 30 min, respectively, prior to the rats being placed in the open field. EtOH (1.25 g/kg) was given 5 min prior to placing the rats in the open field. When βCCt was given in combination with either chlordiazepoxide or EtOH, it was given 10 min prior to chlordiazepoxide and EtOH. As noted above, βCCt was administered in Tween-20 solution, while all other drugs were mixed in sterile saline. Animals were tested between 9 am-3 pm.
(§3) Ambulatory count in the open field was recorded individually for 10 min in a plexiglas chamber (42 cm×42 cm 30 cm) using a Digiscan activity monitoring system (Acuscan Electronics, Columbus, Ohio, USA) (for details of the monitoring system see June et al., 1998b).
(§4) βCCt (5-60 mg/kg i.p.) and chlordiazepoxide (2.5, 5, 10 mg/kg i.p.) were administered 15 and 30 min, respectively, prior to being placed in the plus maze or open field. EtOH (1.25 g/kg) was given 5 min prior to placing the rats in the open field. When βCCt was given in combination with either chlordiazepoxide or EtOH, it was given 10 min prior to chlordiazepoxide and EtOH. As noted above, βCCt was administered in Tween-20 solution, while all other drugs were mixed in sterile saline. Animals were tested between 9am-3 pm.

HAD-1 rats = format: in vivo, rat; conditions: i.p.; chlordiazepoxide 10 mg/kg, βCCt 15 mg/kg; 10 min open field
Procedure: as §1, §2, §3, §4

[16] = June et al., 1998e; cited from earlier work
[17] = recombinant αxβ3γ2, read-out: Ki α6
[18] = recombinant αxβ3γ2, read-out: Ki α5

T1 sequence (Q16445 20-453): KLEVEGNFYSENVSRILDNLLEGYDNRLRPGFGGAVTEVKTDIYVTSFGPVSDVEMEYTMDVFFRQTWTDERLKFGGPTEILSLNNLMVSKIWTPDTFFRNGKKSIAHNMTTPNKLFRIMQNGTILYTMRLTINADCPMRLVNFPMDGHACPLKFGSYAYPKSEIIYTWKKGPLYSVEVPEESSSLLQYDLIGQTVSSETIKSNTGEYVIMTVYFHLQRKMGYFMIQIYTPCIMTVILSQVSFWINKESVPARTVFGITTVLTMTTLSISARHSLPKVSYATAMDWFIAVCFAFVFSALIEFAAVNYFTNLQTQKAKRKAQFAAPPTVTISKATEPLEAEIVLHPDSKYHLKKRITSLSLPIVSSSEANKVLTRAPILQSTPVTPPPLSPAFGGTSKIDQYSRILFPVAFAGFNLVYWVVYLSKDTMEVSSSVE
T1 sequence (P28472 26-473 partner): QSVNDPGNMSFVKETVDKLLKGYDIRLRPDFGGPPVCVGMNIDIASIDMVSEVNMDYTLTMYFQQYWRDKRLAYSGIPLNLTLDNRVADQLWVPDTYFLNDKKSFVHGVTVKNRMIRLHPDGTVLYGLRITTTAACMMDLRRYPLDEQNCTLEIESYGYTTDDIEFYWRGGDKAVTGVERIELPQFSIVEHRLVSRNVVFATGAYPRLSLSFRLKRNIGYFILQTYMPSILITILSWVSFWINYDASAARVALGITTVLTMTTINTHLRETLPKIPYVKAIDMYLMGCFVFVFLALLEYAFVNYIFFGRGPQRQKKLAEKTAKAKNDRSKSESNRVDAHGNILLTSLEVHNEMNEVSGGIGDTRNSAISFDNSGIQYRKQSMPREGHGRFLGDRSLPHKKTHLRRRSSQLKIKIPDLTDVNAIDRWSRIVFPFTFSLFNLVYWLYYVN
T1 sequence (P18507 40-475): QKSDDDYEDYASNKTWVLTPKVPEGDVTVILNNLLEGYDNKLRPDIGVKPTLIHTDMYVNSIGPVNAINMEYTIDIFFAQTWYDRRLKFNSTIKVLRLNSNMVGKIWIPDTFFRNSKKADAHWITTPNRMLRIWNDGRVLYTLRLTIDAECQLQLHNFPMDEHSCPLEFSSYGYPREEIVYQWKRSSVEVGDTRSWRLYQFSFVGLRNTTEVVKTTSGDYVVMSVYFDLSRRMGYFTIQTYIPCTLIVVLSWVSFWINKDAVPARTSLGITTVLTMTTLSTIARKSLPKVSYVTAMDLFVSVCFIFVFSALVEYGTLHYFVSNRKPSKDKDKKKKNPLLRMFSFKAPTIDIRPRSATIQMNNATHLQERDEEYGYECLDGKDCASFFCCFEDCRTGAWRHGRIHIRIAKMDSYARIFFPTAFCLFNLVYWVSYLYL
T5 sequence (P34903 29-492): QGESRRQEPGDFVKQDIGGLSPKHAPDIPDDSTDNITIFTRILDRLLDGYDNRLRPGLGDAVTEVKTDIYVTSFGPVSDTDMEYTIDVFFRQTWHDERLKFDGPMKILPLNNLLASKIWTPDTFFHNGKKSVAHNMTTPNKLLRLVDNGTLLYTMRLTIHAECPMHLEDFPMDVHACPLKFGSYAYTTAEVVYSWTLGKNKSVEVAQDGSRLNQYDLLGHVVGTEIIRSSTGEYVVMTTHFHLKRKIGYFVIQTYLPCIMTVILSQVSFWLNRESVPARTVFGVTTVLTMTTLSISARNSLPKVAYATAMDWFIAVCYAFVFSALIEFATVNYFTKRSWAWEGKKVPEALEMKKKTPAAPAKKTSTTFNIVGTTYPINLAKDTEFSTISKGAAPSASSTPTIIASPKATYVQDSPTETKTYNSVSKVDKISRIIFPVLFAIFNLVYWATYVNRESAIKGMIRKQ
T5 sequence (P28472 26-473 partner): as the sequence (P28472 26-473 partner) above
T5 sequence (P18507 40-475): as the sequence (P18507 40-475) above
T4 sequence (P47869 29-451): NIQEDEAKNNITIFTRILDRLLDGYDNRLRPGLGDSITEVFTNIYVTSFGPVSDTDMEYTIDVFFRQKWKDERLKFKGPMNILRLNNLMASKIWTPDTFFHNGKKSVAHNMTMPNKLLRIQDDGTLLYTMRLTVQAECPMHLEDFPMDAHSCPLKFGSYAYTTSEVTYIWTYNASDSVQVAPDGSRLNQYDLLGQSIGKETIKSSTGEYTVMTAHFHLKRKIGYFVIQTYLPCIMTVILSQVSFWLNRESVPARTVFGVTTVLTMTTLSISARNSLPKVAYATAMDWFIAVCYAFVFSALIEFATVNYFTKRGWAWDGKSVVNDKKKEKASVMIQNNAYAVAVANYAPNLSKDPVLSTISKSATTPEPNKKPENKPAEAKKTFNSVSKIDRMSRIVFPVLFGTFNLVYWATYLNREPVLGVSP
T4 sequence (P28472 26-473 partner): as the sequence (P28472 26-473 partner) above
T4 sequence (P18507 40-475): as the sequence (P18507 40-475) above
T3 sequence (P31644 32-462): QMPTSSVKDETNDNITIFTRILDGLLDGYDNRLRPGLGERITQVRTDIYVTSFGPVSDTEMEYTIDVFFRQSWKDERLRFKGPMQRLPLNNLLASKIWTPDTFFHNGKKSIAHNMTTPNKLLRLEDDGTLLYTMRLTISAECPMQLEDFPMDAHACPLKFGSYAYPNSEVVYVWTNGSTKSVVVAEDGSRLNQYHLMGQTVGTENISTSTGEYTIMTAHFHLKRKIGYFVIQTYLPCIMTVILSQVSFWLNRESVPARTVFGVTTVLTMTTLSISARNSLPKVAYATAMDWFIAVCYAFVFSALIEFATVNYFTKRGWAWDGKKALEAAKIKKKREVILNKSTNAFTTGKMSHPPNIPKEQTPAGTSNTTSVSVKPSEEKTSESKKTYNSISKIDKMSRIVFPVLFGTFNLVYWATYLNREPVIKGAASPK
T3 sequence (P28472 26-473 partner): as the sequence (P28472 26-473 partner) above
T3 sequence (P18507 40-475): as the sequence (P18507 40-475) above
T2 sequence (P14867 28-456): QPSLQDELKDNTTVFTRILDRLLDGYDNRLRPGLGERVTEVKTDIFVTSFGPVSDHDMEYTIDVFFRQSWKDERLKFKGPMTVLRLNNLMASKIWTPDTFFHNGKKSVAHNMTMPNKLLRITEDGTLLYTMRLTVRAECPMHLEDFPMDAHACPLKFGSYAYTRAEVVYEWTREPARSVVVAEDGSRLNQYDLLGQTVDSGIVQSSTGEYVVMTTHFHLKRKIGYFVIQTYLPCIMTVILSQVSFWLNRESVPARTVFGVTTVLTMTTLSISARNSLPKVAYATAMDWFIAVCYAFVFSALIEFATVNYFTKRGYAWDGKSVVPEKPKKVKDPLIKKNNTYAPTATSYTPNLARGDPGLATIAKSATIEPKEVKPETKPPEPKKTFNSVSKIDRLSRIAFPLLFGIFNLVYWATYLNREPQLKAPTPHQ
T2 sequence (P28472 26-473 partner): as the sequence (P28472 26-473 partner) above
T2 sequence (P18507 40-475): as the sequence (P18507 40-475) above
T7 sequence (P19969 32-464 limits assumed): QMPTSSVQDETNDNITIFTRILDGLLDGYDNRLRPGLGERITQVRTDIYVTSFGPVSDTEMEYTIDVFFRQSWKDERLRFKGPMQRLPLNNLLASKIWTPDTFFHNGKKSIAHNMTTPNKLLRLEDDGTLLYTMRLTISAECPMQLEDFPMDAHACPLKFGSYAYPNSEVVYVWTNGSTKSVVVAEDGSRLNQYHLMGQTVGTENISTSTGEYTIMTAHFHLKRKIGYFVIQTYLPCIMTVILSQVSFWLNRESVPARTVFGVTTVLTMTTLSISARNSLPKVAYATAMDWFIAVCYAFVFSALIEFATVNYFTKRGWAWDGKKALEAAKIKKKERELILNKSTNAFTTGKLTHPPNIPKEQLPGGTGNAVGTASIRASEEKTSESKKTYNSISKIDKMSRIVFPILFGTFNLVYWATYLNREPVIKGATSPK
T7 sequence (P63079 26-473 partner): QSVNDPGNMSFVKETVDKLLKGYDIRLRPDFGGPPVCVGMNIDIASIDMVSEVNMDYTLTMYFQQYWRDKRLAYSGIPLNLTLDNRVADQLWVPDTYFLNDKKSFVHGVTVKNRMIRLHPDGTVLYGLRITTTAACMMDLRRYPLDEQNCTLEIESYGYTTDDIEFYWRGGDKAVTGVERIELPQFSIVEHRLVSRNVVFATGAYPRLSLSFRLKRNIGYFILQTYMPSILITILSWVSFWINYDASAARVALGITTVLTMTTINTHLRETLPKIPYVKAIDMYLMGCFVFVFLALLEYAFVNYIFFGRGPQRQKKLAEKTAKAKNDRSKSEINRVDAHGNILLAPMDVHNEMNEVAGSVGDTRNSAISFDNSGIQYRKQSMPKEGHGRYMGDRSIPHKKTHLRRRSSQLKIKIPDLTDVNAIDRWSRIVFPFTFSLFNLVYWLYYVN
T7 sequence (P18508 39-466): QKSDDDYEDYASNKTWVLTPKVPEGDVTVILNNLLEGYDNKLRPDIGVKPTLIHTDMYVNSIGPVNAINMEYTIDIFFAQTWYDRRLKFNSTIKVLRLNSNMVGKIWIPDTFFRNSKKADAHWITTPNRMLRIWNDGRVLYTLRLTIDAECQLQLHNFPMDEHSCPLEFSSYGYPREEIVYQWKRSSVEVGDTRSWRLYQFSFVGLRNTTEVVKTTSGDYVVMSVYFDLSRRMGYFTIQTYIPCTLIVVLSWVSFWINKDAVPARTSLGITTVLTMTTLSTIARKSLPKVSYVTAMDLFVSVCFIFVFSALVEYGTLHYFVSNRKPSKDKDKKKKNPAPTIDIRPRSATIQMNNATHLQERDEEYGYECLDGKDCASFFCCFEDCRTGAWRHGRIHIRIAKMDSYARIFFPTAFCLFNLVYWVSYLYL

## CCOc1cc2c(cn1)[nH]c1ccccc12 [3-EBC]
α6β3γ2 GABAA receptor [1]; [17]
  Ki: > 1 µM
α1β3γ2 GABAA receptor [2]
  Ki: 0.00643 µM
α5β3γ2 GABAA receptor [3]; [18]
  Ki: 0.868 µM
[4]
  IC50: 0.024 µM
α2β3γ2 GABAA receptor [5]
  Ki: 0.0251 µM

## COc1cc2c(cn1)[nH]c1ccccc12 [3-methoxy]
[4]
  IC50: 0.124 µM

## Cc1nnc2ccc(-c3cccc(C(F)(F)F)c3)nn12 [CL218, 872, reference compound]
α6β3γ2 GABAA receptor [1]; [17]
  Ki: > 1 µM
α3β3γ2 GABAA receptor [6]
  Ki: 1.16 µM
α1β3γ2 GABAA receptor [2]
  Ki: 0.057 µM
α5β3γ2 GABAA receptor [3]; [18]
  Ki: 0.561 µM
α2β3γ2 GABAA receptor [5]
  Ki: 1.96 µM

## CCOC(=O)c1cc2c(cn1)[nH]c1ccccc12 [βCCE]
[4]
  IC50: 0.005 µM

## Cn1ncnc1COc1nn2c(-c3cc(F)ccc3F)nnc2cc1C(C)(C)C [L-838, 417]
α6β3γ2 GABAA receptor [7]
  Ki: 0.00225 µM
α5β3γ2 GABAA receptor [8]
  Ki: 0.267 µM
α3β3γ2 GABAA receptor [9]
  Ki: 0.00067 µM
α1β3γ2 GABAA receptor [10]
  Ki: 0.00079 µM
α2β3γ2 GABAA receptor [11]
  Ki: 0.00067 µM

## CCOC(=O)c1ncn2c1CN(C)C(=O)c1cc(F)ccc1-2 [Ro15-1788, flumazenil]
GABAA α2β3γ2 receptors
  % of GABA response, α2: 115±4%
GABAA α3β3γ2 receptors
  % of GABA response, α3: 118±7%
GABAA α4β3γ2 receptors; saturating 1-10 μM modulator with EC50 GABA (10 μM), mean±S.D.
  % of GABA response, α4: 132±6%
[12]
  alcohol-maintained responding: did not alter EtOH-maintained responding
GABAA α1β3γ2 receptors
  % of GABA response, α1: 99±5%
Squirrel monkeys
  activity in observational studies vs saline controls: decreased overall activity
GABAA α5β3γ2 receptors
  % of GABA response, α5: 96±6%
[13]
  efficacy profile at the α1 through α5 receptors: statistically similar to 3-PBC

## O=C1CC[C@@]2(O)[C@H]3Cc4ccc(O)c5c4[C@@]2(CCN3CC2CC2)[C@H]1O5 [Naltrexone, naltrexone, reference compound]
P rats [14]; oral (gavage) 75 mg/kg
  responding for sucrose: significantly reduces responding for sucrose
P rats [14]; oral (gavage), βCCt 15 & 30 mg/kg, 3-PBC 30-75 mg/kg, naltrexone 30-75 mg/kg
  EtOH responding: significantly reduces EtOH responding
P rats [14]; oral (gavage), βCCt 15 & 75 mg/kg
  EtOH responding 24 hours after administration: dissipated

## CNC1=Nc2ccc(Cl)cc2C(c2ccccc2)=[N+]([O-])C1 [Chlordiazepoxide, reference compound]
P rats [15]
  locomotor activity, drug given alone: profound and comparable reduction in locomotor activity
HAD-1 rats
  locomotor activity, drug given alone: profound and comparable reduction in locomotor activity

## Cc1ccc(-c2nc3ccc(C)cn3c2CC(=O)N(C)C)cc1 [Zolpidem, reference compound]
α6β3γ2 GABAA receptor [1]
  Ki: > 1 µM
α5β3γ2 GABAA receptor [3]
  Ki: > 1 µM

## CCOC(=O)c1ncc2[nH]c3cccc(OC(C)C)c3c2c1C [ZK 93426]
α6β3γ2 GABAA receptor [7]
  Ki: 1.6 µM
GABAA α2β3γ2 receptors
  % of GABA response, α2: 140±13%
α5β3γ2 GABAA receptor [8]
  Ki: 0.003 µM
GABAA α3β3γ2 receptors
  % of GABA response, α3: 147±10%
α3β3γ2 GABAA receptor [9]
  Ki: 0.024 µM
GABAA α4β3γ2 receptors
  % of GABA response, α4: 137±8%
[12]
  alcohol-maintained responding: can selectively reduce alcohol-maintained responding
GABAA α1β3γ2 receptors
  % of GABA response, α1: 146+11%
GABAA α5β3γ2 receptors
  % of GABA response, α5: ~96±6%
[16]
  blocking the sedative actions of alcohol: capable of blocking
α1β3γ2 GABAA receptor [10]
  Ki: 0.011 µM
α2β3γ2 GABAA receptor [11]
  Ki: 0.031 µM

— patent US20030176456A1, “Methods for reducing alcohol cravings in chronic alcoholics” (priority 2001, published 2003)
